The text below walks through data of US20220249598A1, “COMPOSITIONS TARGETING SPERM CALCINEURIN” (Kent State University, priority 2019, published 2022).

Entries after “also recorded” stand apart in the source; their conditions may differ.

Series [1] deals with mouse caudal spermatozoa. As to the kind of experiment: IVF of treated spermatozoa with cumulus-free zona-free oocytes. The class given is cell-based. Conditions: FK506 20 nM, FIG. 2A. As to the method:
Nanomolar doses of FK506 were used to treat spermatozoa and then use those cells were used for in vitro fertilization (IVF) assays. The treated spermatozoa were exposed to three different types oocyte conditions while performing IVF: a) regular IVF with intact oocyte-cumulus complex, b) cumulus-free intact oocyte and c) cumulus-free zona-free oocyte. FIG. 2 illustrates the detection of FK506 induced defect in sperm motility and oocyte penetration. A) FK506 (20 nM) treated spermatozoa were used for both cumulus free zona intact oocytes as well as zona-free oocytes. B) Effect of FK506 treatment for (120-180 min) on sperm hyperactivation controlling parameters; VAP: average path velocity, VCL: curvilinear velocity, ALH: lateral head amplitude.

The test system of the next series is GSK3α. Put plainly: GSK3 phosphorylation in sperm by Western blot. Conditions: FK506 20 nM during capacitation. The class given is cell-based, mouse. As to the method:
(§1) The effect of calcineurin inhibitor on GSK3αβ phosphorylation was studied by Western blot procedure. Calcium dependence of calcineurin mediated GSK3α regulation was also checked. Both GSK3 activity and Calcineurin activity were measured in presence of FK506. FIG. 3 illustrates the regulation of GSK3α in mouse sperm by FK506. A) Modulation of phospho-serine/tyrosine profile GSK3α by FK506 (20 nM) during capacitation; for capacitation spermatozoa were incubated with ‘capacitation medium’, HTF or TYH for ˜90 min. B) phosphor-serine GSK3α status was checked during capacitation with TYH medium having high fatty acid containing BSA. C) Possible involvement of AKT in mediation of calcineurin induced regulation of GSK3α. D) Validation of involvement of extracellular calcium in GSK3α regulation; no calcium salt was added in the ‘−Ca^2+’ set, 10 μM BAPTA-AM was used to chelate intra-sperm Ca^2+ ions; […] phosphorylation was compared between wild type and ppp3r2 knockout sperm extract E) GSK3 activity of sperm cells under capacitating condition was checked using p^32radioactive ATP for phosphorylation of substrate. F) Co-relation among intracellular free calcium levels of different maturational stages of sperm cells with calcineurin activity was measured; for negative control, 20 nM of FK506 was used. All data represent mean±SEM of n=4 for all the values. *p≤0.05, **p≤0.01 versus control.
A general note: In western blotting, separated proteins are transferred to a membrane and probed.

In another series the test system is oocytes. As to the kind of experiment: IVF with oocytes pre-incubated with inhibitor, spermatozoa untreated. Conditions: oocytes incubated with same concentration of FK506 (20 nM). The format is cell-based, mouse. The procedure:
FIG. 1 illustrates the effect of treatments of mouse caudal spermatozoa with calcineurin and GSK3 inhibitors on in vitro fertilization, indicated by two-cell stage formation. A) Spermatozoa were incubated under capacitating medium (viz. […] Additionally, oocytes were also incubated with same concentration of FK506, which it encounters during the IVF, the corresponding spermatozoa set was untreated. All data represent mean±SEM of n=3 for all the values. *p≤0.05 versus control. B) Dose response curve of FK506 at 0, 2.5, 5, 10, 20 & 50 nM concentration. C) Representative images showing effect of FK506 on IVF; black triangles directing the two-cell stage after fertilization of eggs.

The conditions of series [2]: cited from earlier work.
For series [3] the following is noted: 0.1% tacrolimus formulations; cited from earlier work.
For series [4], the system named is mouse caudal spermatozoa. Put plainly: in vitro fertilization (IVF) with inhibitor-treated spermatozoa, two-cell stage formation. The format is cell-based. The procedure:
Nanomolar doses of FK506 were used to treat spermatozoa and then use those cells were used for in vitro fertilization (IVF) assays. The treated spermatozoa were exposed to three different types oocyte conditions while performing IVF: a) regular IVF with intact oocyte-cumulus complex, b) cumulus-free intact oocyte and c) cumulus-free zona-free oocyte.
A) Spermatozoa were incubated under capacitating medium (viz. […] Additionally, oocytes were also incubated with same concentration of FK506, which it encounters during the IVF, the corresponding spermatozoa set was untreated. […] B) Dose response curve of FK506 at 0, 2.5, 5, 10, 20 & 50 nM concentration.

The subject of a further series is mouse sperm. Put plainly: sperm motility / hyperactivation by computer assisted sperm analyzer (CASA). The format is cell-based. Conditions: FK506 treatment 120-180 min, capacitation; FIG. 2B. The procedure:
Another set of treated sperm cell was analyzed for its motility parameters using computer assisted sperm analyzer (CASA). Average path velocity (VAP), curvilinear velocity (VCL) and amplitude of lateral head displacement (ALH) were measured to assess hyperactivation. FIG. 2 illustrates the detection of FK506 induced defect in sperm motility and oocyte penetration. A) FK506 (20 nM) treated spermatozoa were used for both cumulus free zona intact oocytes as well as zona-free oocytes. B) Effect of FK506 treatment for (120-180 min) on sperm hyperactivation controlling parameters; VAP: average path velocity, VCL: curvilinear velocity, ALH: lateral head amplitude.

For another series, the target named is sperm calcineurin (Mus musculus, UniProt P26883+P48455+Q63811). Put plainly: calcineurin activity in sperm. The class given is biochemical.
A further series relates to sperm GSK3. As to the kind of experiment: GSK3 activity of sperm cells with p32 radioactive ATP. Conditions: capacitating condition. The class given is biochemical, mouse. As to the method:
as §1

Protocol for sperm calcineurin: The effect of calcineurin inhibitor on GSK3αβ phosphorylation was studied by Western blot procedure. Calcium dependence of calcineurin mediated GSK3α regulation was also checked. Both GSK3 activity and Calcineurin activity were measured in presence of FK506. […] A) Modulation of phospho-serine/tyrosine profile GSK3α by FK506 (20 nM) during capacitation; for capacitation spermatozoa were incubated with ‘capacitation medium’, HTF or TYH for ˜90 min. B) phosphor-serine GSK3α status was checked during capacitation with TYH medium having high fatty acid containing BSA. C) Possible involvement of AKT in mediation of calcineurin induced regulation of GSK3α. D) Validation of involvement of extracellular calcium in GSK3α regulation; no calcium salt was added in the ‘−Ca^2+’ set, 10 μM BAPTA-AM was used to chelate intra-sperm Ca^2+ ions; CatSper1 phosphorylation was compared between wild type and ppp3r2 knockout sperm extract E) GSK3 activity of sperm cells under capacitating condition was checked using p^32radioactive ATP for phosphorylation of substrate. F) Co-relation among intracellular free calcium levels of different maturational stages of sperm cells with calcineurin activity was measured; for negative control, 20 nM of FK506 was used.

For `C=CC[C@@H]1/C=C(\C)C[C@H](C)C[C@H](OC)[C@H]2O[C@@](O)(C(=O)C(=O)N3CCCC[C@H]3C(=O)O[C@H](/C(C)=C/[C@@H]3CC[C@@H](O)[C@H](OC)C3)[C@H](C)[C@@H](O)CC1=O)[C@H](C)C[C@@H]2OC` [FK506, tacrolimus], the “fertilization of zona-free eggs by treated sperm” value with mouse caudal spermatozoa [1] was “not affecting sperm cells to fertilize zona-free eggs”. For the same compound, the “net phosphorylation of sperm GSK3” value in the series on GSK3α is listed as “increase in the net phosphorylation”. For the same compound, the “reduction in fertilization after pre-treatment of oocytes” value with oocytes is recorded as “did not result in any reduction in fertilization”. Besides, the “titer of the drug in blood” value in [2] (0.1% tacrolimus formulations) was “nanomolar titer”. In addition, in series [2] (topical ointment), the “bioavailability from an ointment formulation” value is about 0.5%. The skin side effects result in series [3] is on record as “increased sensitivity of skin, burning, stinging or itching sensations”. The “inhibition of sperm ability to fertilize eggs in vitro, dose response” value in the series on mouse caudal spermatozoa [4] (FK506 at 0, 2.5, 5, 10, 20 & 50 nM) is given as “good enough to inhibit”. Further, the “inhibition of fertilizing ability of sperm in vitro” value in the series on mouse caudal spermatozoa [4] (sperm incubated 1 hr at 37° C. in capacitating medium, FK506 20 nM, cyclosporin A 10 μM, two-cell stage formation, FIG. 1A) is “significantly and independently inhibit; also recorded: inhibited fertilization”. The “hyperactivation of sperm (VAP, VCL, ALH)” value in the series with mouse sperm was “mostly unable to exhibit hyperactivity; also recorded: lack of attainment of hyperactivation”. For the same compound, at sperm calcineurin, the “inhibition of sperm calcineurin” value is “inhibits sperm calcineurin at nanomolar level”. Also, in the series on sperm GSK3, the “catalytic activity of sperm GSK3” value is listed as “decrease in catalytic activity”.
